Laboratory results from EP4700023A1, “GLP-1R RECEPTOR AGONIST COMPOUND SALT AND CRYSTAL FORM THEREOF, PREPARATION METHOD THEREFOR AND USE THEREOF” (Chengdu Vincentage Pharma Co., Ltd., priority 2023, dated 2024).
Where a name gives a salt, the structure may show the parent alone.

Key:
[1] = Purity test after storage in an oven at set temperature (stability); format: physicochemical; settings: HPLC; for Purity, Onset: Onset (before storage)
Method: Purity test: The sample to be tested was dissolved in a methanol solution, and the sample purity was measured by HPLC.

[2] = Compressibility test (tableting, XRPD detection); format: physicochemical; settings: compressed into tablets
[3] = Grindability test (mortar, XRPD detection); format: physicochemical; settings: for Grindability (mortar 5 min), solid form: XRPD
Method: Grindability test: An appropriate amount of the crystal compound to be tested was placed in a mortar and ground for 2 min and 5 min, followed by XRPD detection.

[4] = Tableting and grinding test (XRPD, FIG. 21 to 25); format: physicochemical
Method: Grindability test: An appropriate amount of the crystal compound to be tested was placed in a mortar and ground for 2 min and 5 min, followed by XRPD detection. […]

[5] = Purity test after storage in an oven at set temperature (stability); format: physicochemical; settings: 80°C, 1 day
[6] = Pharmacokinetic evaluation in rats; format: in vivo; settings: Rat PK, 10 mg/kg
Method: Rats were used as test animals, and the plasma drug concentrations at different time points after gavage administration of the test sample were measured. The pharmacokinetic behavior of the compound of the present disclosure in rats was studied to evaluate its metabolic characteristics. For each experimental group, 3 rats with similar body weights were selected and orally administered a single dose of 10 mg/kg. […] Pharmacokinetic parameter calculations were performed using metabolic kinetic data analysis software WinNonlin 7.0 by non-compartmental analysis (NCA) based on plasma concentration data.
A test sample with a final preparation concentration (based on the content of the compound of formula I) of 1.0 mg/mL was prepared for oral administration, using a 0.5% CMC Na aqueous solution as the preparation solvent.
Administration: After overnight fasting (12 hours), rats were administered by gavage at a dose of 10 mg/kg.
The blood samples were placed in heparinized sample tubes, and centrifuged at 4°C and 3500 rpm for 10 minutes to separate plasma, which was then stored at -20°C. Food was provided 2 hours after administration.
Determination of the content of the compound to be tested in rat plasma after gavage administration: After thawing plasma samples at room temperature, 300 µL of internal standard (terfenadine 200 ng/mL, acetonitrile) was added to each sample. The mixtures were vortexed for 1 min and then centrifuged at 4°C and 15400 rpm for 10 min. The supernatant was diluted 20-fold with 80% acetonitrile-water and then injected for LC/MS/MS analysis.

[7] = Hygroscopicity test method (DVS); format: physicochemical; set-up: Sorption / Desorption / Hysteresis: unit not given here; settings: for Hygroscopicity (80% RH), description in words / Hygroscopicity (80% RH): 25°C, DVS; for Desorption / Sorption / Hysteresis: onset temperature 24.9°C
Method: Hygroscopicity test method (DVS): The hygroscopicity of the sample was measured using SMS Intrinsic Plus. The sample was weighed into a sample pan, equilibrated at 25°C until dm/dt was less than 0.002%, and then measured in time mode. The humidity was adjusted from 60%-90%-0%-90%-0% RH, with increments of 10% RH per step, and each humidity level was maintained for 1 hour.

[8] = after tableting, after grinding for 5 minutes and for 2 minutes, FIG. 21 to 23
[9] = Target humidity 0.0 % P/P0, first cycle
[10] = Target humidity 10.0 % P/P0, first cycle
[11] = Target humidity 20.0 % P/P0, first cycle
[12] = Target humidity 30.0 % P/P0, first cycle
[13] = Target humidity 40.0 % P/P0, first cycle
[14] = Target humidity 50.0 % P/P0, first cycle
[15] = Target humidity 60.0 % P/P0, first cycle
[16] = Target humidity 70.0 % P/P0, first cycle
[17] = Target humidity 80.0 % P/P0, first cycle
[18] = Target humidity 90.0 % P/P0, first cycle
[19] = Cycle 2, target humidity 0.0 % P/P0
[20] = Cycle 2, target humidity 10.0 % P/P0
[21] = Cycle 2, target humidity 20.0 % P/P0
[22] = Cycle 2, target humidity 30.0 % P/P0
[23] = Cycle 2, target humidity 40.0 % P/P0
[24] = Cycle 2, target humidity 50.0 % P/P0
[25] = Cycle 2, target humidity 60.0 % P/P0
[26] = Cycle 2, target humidity 70.0 % P/P0
[27] = Cycle 2, target humidity 80.0 % P/P0
[28] = Cycle 2, target humidity 90.0 % P/P0

O=C(O)c1ccc2nc(CN3CCC(c4ccccc4OCc4ccc(Cl)cc4F)CC3)n(C[C@@H]3CCO3)c2c1 [Crystal form III of the compound of formula I] [(S)-2-((4-(2-((4-Chloro-2-fluorobenzyl)oxy)phenyl)piperidin-1-yl)methyl)-1-(oxetan-2-aminomethyl)-1H-benzo[d]imidazole-6-carboxylic acid]
Purity, Onset [1]: 99.25%
Purity, 80°C (1 day) ([1]; oven): 83.43%
Compressibility (20 Mp) [2]: Crystal form III, no significant reduction in crystallinity
Grindability (mortar 5 min), purity [3]: 98.65%
Grindability (mortar 5 min), solid form [3]: transformed to amorphous
Crystallinity after tableting and grinding [4, 8]: decreasing crystallinity in different degrees
Solid form after 80°C (1 day) [5]: transformed to amorphous

O=C(O)c1ccc2nc(CN3CCC(c4ccccc4OCc4ccc(Cl)cc4F)CC3)n(C[C@@H]3CCO3)c2c1 [Crystal form A of the monohydrate of the 2-amino-2-(hydroxymethyl)-1,3-propanediol salt of (S)-2-((4-(2-((4-chloro-2-fluorobenzyl)oxy)phenyl)piperidin-1-yl)methyl)-1-(oxetan-2-aminomethyl)-1H-benzo[d]imidazole-6-carboxylate]
AUC(0-inf) ([6]; in vivo, oral (PO)): 772 ng·h/mL
AUC(0-t) ([6]; in vivo, oral (PO)): 765 ng·h/mL
Cmax ([6]; in vivo, oral (PO)): 410 ng/mL
Tmax ([6]; in vivo, oral (PO)): 0.41 h
half-life ([6]; in vivo, oral (PO)): 1.59 h

O=C([O-])c1ccc2nc(CN3CCC(c4ccccc4OCc4ccc(Cl)cc4F)CC3)n(C[C@@H]3CCO3)c2c1.[Na+] [Sodium salt of the compound of formula I, Sodium salt of (S)-2-((4-(2-((4-chloro-2-fluorobenzyl)oxy)phenyl)piperidin-1-yl)methyl)-1-(oxetan-2-aminomethyl)-1H-benzo[d]imidazole-6-carboxylate]
Hygroscopicity (80% RH), description in words [7]: Highly hygroscopic, deliquescent

O=C(O)c1ccc2nc(CN3CCC(c4ccccc4OCc4ccc(Cl)cc4F)CC3)n(C[C@@H]3CCO3)c2c1 [Crystal form II of the compound of formula I] [(S)-2-((4-(2-((4-Chloro-2-fluorobenzyl)oxy)phenyl)piperidin-1-yl)methyl)-1-(oxetan-2-aminomethyl)-1H-benzo[d]imidazole-6-carboxylic acid]
Purity, Onset [1]: 99.73%
Purity, 80°C (1 day) ([1]; oven): 80.43%
Compressibility (20 Mp) [2]: Crystal form II, significant reduction in crystallinity
Grindability (mortar 5 min), purity [3]: 99.7%
Grindability (mortar 5 min), solid form [3]: transformed to amorphous
Crystallinity after tableting and grinding [4, 8]: decreasing crystallinity in different degrees
Solid form after 80°C (1 day) [5]: transformed to amorphous

O=C(O)c1ccc2nc(CN3CCC(c4ccccc4OCc4ccc(Cl)cc4F)CC3)n(C[C@@H]3CCO3)c2c1 [Crystal form I of the compound of formula I] [(S)-2-((4-(2-((4-Chloro-2-fluorobenzyl)oxy)phenyl)piperidin-1-yl)methyl)-1-(oxetan-2-aminomethyl)-1H-benzo[d]imidazole-6-carboxylic acid]
Hygroscopicity (80% RH) [7]: 2.5%
Hygroscopicity (80% RH), description in words [7]: highly hygroscopic
Desorption [7, 9]: 0.013
Sorption [7, 9]: 0.019
Desorption [7, 10]: 0.807
Hysteresis [7, 10]: 0.042
Sorption [7, 10]: 0.766
Desorption [7, 11]: 1.307
Hysteresis [7, 11]: 0.035
Sorption [7, 11]: 1.271
Desorption [7, 12]: 1.588
Hysteresis [7, 12]: 0.047
Sorption [7, 12]: 1.541
Desorption [7, 13]: 1.816
Hysteresis [7, 13]: 0.062
Sorption [7, 13]: 1.754
Desorption [7, 14]: 2.072
Hysteresis [7, 14]: 0.112
Sorption [7, 14]: 1.960
Desorption [7, 15]: 2.286
Hysteresis [7, 15]: 0.125
Sorption [7, 15]: 2.161
Desorption [7, 16]: 2.441
Hysteresis [7, 16]: 0.097
Sorption [7, 16]: 2.344
Desorption [7, 17]: 2.576
Hysteresis [7, 17]: 0.065
Sorption [7, 17]: 2.511
Desorption [7, 18]: 2.685
Sorption [7, 18]: 2.685
Purity, Onset [1]: 99.27%
Purity, 80°C (1 day) ([1]; oven): 91.81%
Compressibility (20 Mp) [2]: Crystal form I, significant reduction in crystallinity
Grindability (mortar 5 min), purity [3]: 99.25%
Grindability (mortar 5 min), solid form [3]: transformed to amorphous
Crystallinity after tableting and grinding [4, 8]: decreasing crystallinity in different degrees

O=C(O)c1ccc2nc(CN3CCC(c4ccccc4OCc4ccc(Cl)cc4F)CC3)n(C[C@@H]3CCO3)c2c1 [Crystal form A of the monohydrate of the compound of formula] [Crystal form A of the monohydrate of the 2-amino-2-(hydroxymethyl)-1,3-propanediol salt of (S)-2-((4-(2-((4-chloro-2-fluorobenzyl)oxy)phenyl)piperidin-1-yl)methyl)-1-(oxetan-2-aminomethyl)-1H-benzo[d]imidazole-6-carboxylate]
Hygroscopicity (80% RH) [7]: 0.34%
Hygroscopicity (80% RH), description in words [7]: Slightly hygroscopic
Desorption [7, 19]: 0.0112
Sorption [7, 19]: 0.0000
Desorption [7, 20]: 0.1186
Hysteresis [7, 20]: 0.0161
Sorption [7, 20]: 0.1025
Desorption [7, 21]: 0.1641
Hysteresis [7, 21]: 0.0175
Sorption [7, 21]: 0.1466
Desorption [7, 22]: 0.1996
Hysteresis [7, 22]: 0.0182
Sorption [7, 22]: 0.1814
Desorption [7, 23]: 0.2286
Hysteresis [7, 23]: 0.0145
Sorption [7, 23]: 0.2141
Desorption [7, 24]: 0.2611
Hysteresis [7, 24]: 0.0167
Sorption [7, 24]: 0.2443
Desorption [7, 25]: 0.2923
Hysteresis [7, 25]: 0.0177
Sorption [7, 25]: 0.2746
Desorption [7, 26]: 0.3219
Hysteresis [7, 26]: 0.0176
Sorption [7, 26]: 0.3043
Desorption [7, 27]: 0.3457
Hysteresis [7, 27]: 0.0099
Sorption [7, 27]: 0.3458
Desorption [7, 28]: 0.3759
Sorption [7, 28]: 0.3759
Desorption [7, 9]: 0.0000
Desorption [7, 10]: 0.1080
Desorption [7, 11]: 0.1542
Desorption [7, 12]: 0.1894
Desorption [7, 13]: 0.2213
Desorption [7, 14]: 0.2553
Desorption [7, 15]: 0.2989
Hysteresis [7, 15]: 0.0002
Sorption [7, 15]: 0.2896
Desorption [7, 16]: 0.3213
Hysteresis [7, 16]: 0.0053
Sorption [7, 16]: 0.3160
Desorption [7, 17]: 0.3490
Hysteresis [7, 17]: 0.0064
Sorption [7, 17]: 0.3426
Desorption [7, 18]: 0.3817
Sorption [7, 18]: 0.3817
Purity, 2 to 8°C (6 months) ([1]; 2 to 8°C, 6 months): 99.90%
Purity, Onset [1]: 99.95%
Purity, 60°C (7 day) ([1]; oven, 60°C, 7 day): 99.90%
Purity, 80°C (1 day) ([1]; oven): 99.35%
Compressibility (20 Mp) [2]: Crystal form unchanged
Grindability (mortar 5 min), purity change [3]: purity unchanged
Grindability (mortar 5 min), solid form [3]: Crystalline form unchanged
Oral absorption ([6]; compared with the free acid): significantly better oral absorption than the compound of formula I (free acid)
Crystallinity after tableting and grinding ([4]; first and second tableting at 20 MPa, tableting at 40 MPa, grinding for 1, 3 and 5 minutes, FIG. 24, 25): basically stable
Solid form after 80°C (1 day) [5]: retained the crystal form
